Measured values from patent publication US9606124B2, “Methods of detecting and treating stem-cell containing solid tumors” (The Regents of The University of Michigan, priority 2008, dated 2017).
Entries after “also recorded” stand apart in the source; their conditions may differ. Where two headings read alike, the source gives them in different places.

Assays:
[1] = system: SUM159 PTEN-siRNA and SUM159 Ad-FAK cells; experiment: Repertaxin on SUM159 PTEN-siRNA and SUM159 Ad-FAK cells (western, immunofluorescence, MTT, ALDEFLUOR); format: cell-based, human; settings: for FAK and AKT activity / FOXO3A activation in cells with PTEN deletion or FAK overexpression: 100 nM, two days
Text: (§1) Cell viability. […] Nuclei were counterstained with DAPI/antifade (Invitrogen).
ALDEFLUOR assay. The ALDEFLUOR kit (StemCell technologies) was used to isolate the population with high ALDH enzymatic activity using a FACStarPLUS (Becton Dickinson) as previously described (Ginestier et al. Cell Stem Cell 1:555-567, herein incorporated by reference in its entirety). In order to eliminate cells of mouse origin from the xenotransplanted tumors, cell population was stained with an anti-H2Kd antibody (BD biosciences, 1/200, 20 min on ice) followed by staining with a secondary antibody labeled with phycoerythrin (PE) (Jackson labs, 1/250, 20 min on ice).
(§2) Western blotting. Cells were lysed in a laemmli buffer and loaded onto SDS-polyacrylamide gels. Blots were incubated with the respective primary antibodies diluted in TBST (containing 0.1% Tween20 and 2% BSA) either overnight at 4o, or 2 hours at room temperature. Blots were washed and incubated with appropriate secondary antibodies (GE Healthcare, UK) and detected using SuperSignal West Pico Chemiluminescent Substrate (Pierce).
Immunostaining. For immunofluorescent staining, sorted CXCR1-positive cells were fixed with 95% methanol at −20° C. for 10 minutes. Cells were rehydrated in PBS and incubated with respective antibodies at room temperature for 1 hour. Primary antibodies used were P-FAK (1:50, Cell Signaling Technology), P-AKT (1:300, Cell Signaling Technology), and FOXO3a (1:250, Cell Signaling Technology). Slides were then washed and incubated 30 minutes with PE conjugated secondary antibodies (Jackson labs). The nuclei were counterstained with DAPI/antifade (Invitrogen) and coverslipped. […] Immunohistochemistry for the detection of ALDH1 (1:100, BD biosciences), P-FAK, P-AKT, FOXO3a expression was done on paraffin section (Ginestier et al. Am. J Pathol. 161:1223-1233, herein incorporated by reference in its entirety). Staining was done utilizing the Histostainplus kit (Zymed laboratories). Diaminobenzidine (DAB) or 3-amino-9-ethylcarbazole (AEC) was used as chromogen and sections were counterstained with hematoxylin.
(§3) Virus infection. […] All lentiviral constructs were prepared by the University of Michigan Vector. An adenoviral construct for the overexpression of FAK (Ad-FAK-GFP) was also utilized (Luo et al. Cancer Res. 69:466-474, herein incorporated by reference in its entirety). Cells infection with different vectors was performed as previously described (Charafe-Jauffret et al. Cancer Res. 69:1302-1313, herein incorporated by reference in its entirety). Efficiency of infection was verified by measuring the percentage of DsRed or GFP expressing cells.

HCC1954 PTEN-siRNA cells = experiment: Repertaxin on HCC1954 PTEN-siRNA cells (western, MTT); format: cell-based, human
Procedure: as §1, §2, §3

[2] = system: cells from primary tumors SUM159, MC1, UM2, UM3; experiment: Re-implantation of cells from treated tumors into secondary mice; format: in vivo, NOD/SCID mice; settings: for secondary tumor formation / regrowth from serial dilutions of treated primary tumors: secondary NOD/SCID mice, no further treatment
Procedure: Animal model. […] Cells from these tumors were transplanted orthotopically in the humanized cleared fat-pad of NOD/SCID mice, without cultivation in vitro. […] 50,000 cells from each xenotransplants were injected in the humanized fat pad of NOD/SCID mice and monitored the tumor growth. […] The animals were euthanized when the tumors were approximately 1.5 cm in the largest diameter, to avoid tumor necrosis and in compliance with regulations for use of vertebrate animal in research. A portion of each fat pad injected was fixed in formalin and embedded in paraffin for histological analysis. The rest of the tumor cells were re-implantated into secondary NOD/SCID mice. […]

SUM159 cells = experiment: Metastasis formation after intracardiac injection of SUM159 cells (bioluminescence); format: in vivo, NOD/SCID mice; settings: 250,000 cells intracardiac, repertaxin 15 mg/kg s.c. twice a day 28 days vs saline
Procedure: A SUM159 cell line was infected with a lentivirus expressing luciferase and inoculated 250,000 luciferase infected cells in the heart of NOD/SCID mice. The mice were organized into two groups.
Intracardiac inoculation. Six weeks-old NOD/SCID mice were anesthetized with 2% isofluorane/air mixture and injected in the heart left ventricle with 250,000 cells in 100 μL of sterile Dulbecco's PBS lacking Ca2+ and Mg2+. […] Twelve hours after intracardiac injections, mice were begun on twice per day repertaxin injections or saline for the controls.
Bioluminescence detection. Baseline bioluminescence was assessed before inoculation and each week thereafter inoculations. Bioluminescence detection procedures was performed as previously described (Charafe-Jauffret et al. Cancer Res. 69:1302-1313, herein incorporated by reference in its entirety). Normalized photon flux represents the ratio of the photon flux detected each week after inoculations and the photon flux detected before inoculation.

SMILES: CC(C)Cc1ccc([C@@H](C)C(=O)NS(C)(=O)=O)cc1 [Repertaxin]
- ALDEFLUOR-positive population of cells with PTEN deletion or FAK overexpression [1]: did not alter the proportion of ALDEFLUOR-positive SUM159 PTEN knockdown cells
- FAK and AKT activity / FOXO3A activation in cells with PTEN deletion or FAK overexpression [1]: did not induce FOXO3A activation
- FAK and AKT activity / FOXO3A activation in cells with PTEN deletion or FAK overexpression ([1]; listed as repertaxin): PTEN knockdown blocked the effect of repertaxin treatment on FAK and AKT activity; also recorded: PTEN deletion and FAK overexpression blocked the effect of repertaxin treatment on FAK and AKT activity
- cell viability (MTT) of cells with PTEN deletion or FAK overexpression ([1]; 3 days of treatment): did not display any decrease in cell viability; also recorded: developed resistance to repertaxin
- ALDEFLUOR-positive population of cells with PTEN deletion or FAK overexpression ([1]; listed as repertaxin): maintenance of the ALDELFUOR-positive populations
- FAK and AKT activity in HCC1954 PTEN-siRNA cells (western blot) (HCC1954 PTEN-siRNA cells; 100 nM, two days): PTEN deletion blocked the effect of repertaxin treatment
- cell viability (MTT) of HCC1954 PTEN-siRNA cells (HCC1954 PTEN-siRNA cells; 3 days of treatment): developed resistance to repertaxin
- reduction in tumor growth in secondary mice compared to cells from control or docetaxel-treated animals ([2]; equal numbers of cells injected): 2-5 fold
- Tumors/Injections ([2]; number of cells injected 100): 0/9
- Tumors/Injections ([2]; number of cells injected 250): 0/2
- Tumors/Injections ([2]; number of cells injected 500): 1/3
- Tumors/Injections ([2]; number of cells injected 1,000): 4/8
- Tumors/Injections ([2]; number of cells injected 2,500): 2/2
- Tumors/Injections ([2]; number of cells injected 5,000): 2/2
- Tumors/Injections ([2]; number of cells injected 10,000): 4/4
- secondary tumor formation / regrowth from serial dilutions of treated primary tumors [2]: reduced tumor growth in secondary recipients; also recorded: only higher numbers of cells
- secondary tumor formation / regrowth from serial dilutions of treated primary tumors ([2]; listed as Reperatxin): delayed secondary tumors which were significantly smaller in size
- metastasis formation (normalized photon flux) (SUM159 cells): statistically significant increase of metastasis formation in the group of mice treated with saline solution; also recorded: significantly reduced metastasis formation; also recorded: reduces the metastatic potential
- metastasis formation (normalized photon flux) (SUM159 cells; listed as repertaxin): statistically significant decrease in metastasis formation
